The values that follow come from publication PMC6910946, “Multiple roles of Bet v 1 ligands in allergen stabilization and modulation of endosomal protease activity” (Allergy, 2019).

Read-outs that look alike come from different tables or passages of the source.

Test [1] concerns the target T1, Bet_v_1 (Betula pendula, UniProt P15494).
T1 construct: made in house
T1 sequence (P15494 1-160): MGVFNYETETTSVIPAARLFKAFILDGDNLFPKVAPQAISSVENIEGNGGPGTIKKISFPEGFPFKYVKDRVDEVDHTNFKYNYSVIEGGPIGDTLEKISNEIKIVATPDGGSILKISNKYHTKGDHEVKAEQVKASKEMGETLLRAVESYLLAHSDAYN
As to the kind of experiment: NMR spectroscopy (1H-15N HSQC) binding confirmation. The settings on record: for NMR (binding confirmation, K d): 15N-labeled Bet v 1, direct measurement of Kd prevented by intermediate exchange; for specific binding to Bet v 1 (1H-15N HSQC spectra): absence vs presence of compound. From the text:
(§1) Surface acoustic wave (SAW) technology and NMR spectroscopy were used to observe the interaction of Bet_v_1 with the selected compounds, including determination of the dissociation constant (K d). The influence of ligand binding on the secondary structure elements and the thermal stability of Bet_v_1 was monitored using circular dichroism (CD, JASCO J‐815 spectropolarimeter, Jasco) and Fourier transform infrared (FTIR) spectroscopy (Tensor II FTIR system, Bruker Optics Inc). A detailed description of these methods is available (Appendix [Link], [Link]).
To validate the interactions determined by SAW, we used NMR spectroscopy to test the specific binding of PPE1, LTA, LPS, and Kdo2 to Bet_v_1 (Table 1, Figure S2). […] The commercially available PPA1 was used as a substitute for PPE1 to identify the phytoprostane binding site(s).
The NMR data were acquired with either a 600 or 800 MHz Agilent DD2 spectrometer with a cryogenically cooled probe using the pulse sequence gNhsqc. Bet v 1 assignments were taken from.^2 The experiments were performed under the following conditions: LTA: 45 µM Bet v 1 and 300 µM LTA in PBS, 10% ^2H2O, 60 µM DSS; PPE1: 25 µM Bet v 1 and 2 µM PPE1 in PBS, 5% ^2H-(d6) DMSO, 10% ^2H2O, 60 µM DSS; PPA1: 100 µM Bet v 1 and 302 µM PPA1 (Cayman Chemical, MI, USA) in PBS, 8.7% ^2H-(d6) DMSO, 10% ^2H2O, 60 µM DSS; LPS: 100 µM Bet v 1 and 400 µM LPS in PBS pH 7.4, 10% ^2H2O, 60 µM DSS. Kdo2: 100 µM Bet v 1 and 422 µM Kdo2 in PBS pH 7.0, 10% ^2H2O, 8.6% ^2H-(d6) DMSO, 60 µM DSS.

Test [2] concerns the target T1, Bet_v_1. Kind of test: Surface acoustic wave (SAW) interaction studies, determination of Kd. In kind it is binding.
Excerpt: as §1
To assess the interactions between Bet_v_1 and Q3OS, DOC, PPE1, LTA, or LPS, we determined the dissociation constants (K d) using SAW binding assays (Table 1, Figure S1), a more quantitative approach than previously described qualitative assays.11, 25 In addition, the LPS‐substructure Kdo2‐Lipid A (Kdo2) was used for binding studies, due to its more homogenous structure but similar immune stimulatory activity when compared to native LPS.
For the determination of the affinity constant Kd, we used surface acoustic wave (SAW) technology. The interaction of the six ligands with Bet v 1 was investigated using a sam® 5BLUE biosensor instrument (Nanotemper, Munich, Germany). Bet v 1 was immobilized in PBS on the surface of a SAW CM-Dextran 3D sensor chip. […] For calculating the affinity constant Kd, different concentrations of the ligands dissolved in a 5 mM sodium phosphate buffer, pH 7.4, were applied to the Bet v 1-coupled chip. Depending on the ligand, the concentration range of the injected ligand varied between 5 µM and 500 µM. For the removal of residual ligand between the sample injections, the chip was washed with regeneration buffer (10 mM citric acid buffer, pH 2.8). The recorded SAW phase changes were analyzed using the software TraceDrawer 1.7 (Ridgeview Instruments, Uppsala, Sweden). The affinity constant Kd was calculated by kinetic evaluation and affinity/EC50 estimation. For kinetic evaluation, an OneToOne curve fit was chosen to match the raw data. Experiments were performed with two coated chips in duplicate, and the coupling efficiency was evaluated using a mouse monoclonal anti-Bet v 1 antibody.

Test [3] addresses T1, Bet_v_1. Kind of test: LPS pull-down assay. The format is binding, Betula verrucosa. The settings on record: LPS immobilized on Strep‐Tactin Sepharose beads. On the procedure: To investigate whether Bet v 1 binds LPS, a pull-down assay using biotinylated ultrapure E. coli O111:B4 LPS (InvivoGen, San Diego, CA, USA) was performed as previously described.^3 In short, biotinylated LPS was immobilized on Strep-Tactin Sepharose beads (IBA Lifesciences, Göttingen, Germany) and incubated with Bet v 1 for 20 min at room temperature. Unbound protein was washed off and beads were analyzed by SDS-PAGE. As control, the individual components (Bet v 1, biotinylated LPS and Strep-Tactin Sepharose beads), and Bet v 1+beads to exclude unspecific binding, were analyzed.

The target in another test is T2, Bet v 1 / human legumain (Betula pendula, UniProt P15494).
T2 construct: made in house
T2 sequence (P15494 2-160 limits assumed): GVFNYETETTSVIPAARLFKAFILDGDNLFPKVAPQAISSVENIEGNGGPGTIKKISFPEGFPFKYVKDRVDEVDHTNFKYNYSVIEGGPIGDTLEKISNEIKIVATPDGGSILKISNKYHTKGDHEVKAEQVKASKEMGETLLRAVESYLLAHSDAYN
Kind of test: Bet v 1 in vitro proteolytic degradation assay with legumain. In kind it is biochemical. Particulars: Bet v 1 20 µM, ligand 100 µM, legumain 2 µM, pH 5.0, 0-24 h, SDS-PAGE. As to the method: (§2) The endolysosomal degradation assay was performed with ligand‐bound (either DOC, PPE1, or Q3OS in 10× molar excess) and Bet_v_1 without ligands (apo‐Bet_v_1) as previously described.21 Recombinant human cathepsin S and human legumain were used in proteolytic degradation assays. Experimental details are described in the Appendix [Link], [Link].
(§3) Recombinant human cathepsin S and human legumain were heterologously expressed and purified as described previously.^9,10 Bet v 1 (20 µM) was incubated with ligand (100 µM) in digestion buffer (0.1 M sodium acetate, pH 5.0, 0.1 M sodium chloride, 5 mM EDTA, and 2 mM DTT) at room temperature prior to the addition of cathepsin S (1 µM) or legumain (2 µM). […] At each time point, the reaction was halted by the addition of E64 (for cathepsin S) or YVAD-CMK (for legumain) at a final concentration of 50 µM, and analyzed by SDS-PAGE. Control reactions without the addition of protease were performed. The generated peptides were analyzed using mass spectrometry.

A further test has as its target T3, cathepsin S (Homo sapiens, UniProt P25774).
T3 construct: made in house
As to the kind of experiment: Enzymatic activity assay, fluorogenic substrate Z-VVR-AMC. The format is biochemical. As to the method:
To evaluate the influence of Bet_v_1 ligands on cathepsin S and legumain activities, 10 nmol/L of protease was incubated with 100 µmol/L of ligand (unless otherwise stated) and 50 µmol/L of fluorogenic substrate in digestion buffer (0.1 mol/L sodium acetate pH 5.0, 0.1 mol/L sodium chloride, 5 mmol/L EDTA, and 2 mmol/L DTT), as described in the Appendix [Link], [Link]. The effect of birch pollen extract (BPE) (20‐200 µg/mL) on the cathepsin S and legumain activities was assessed in parallel. The inhibitory effect of PPE1 was assessed by replacing DTT with 0.5 mmol/L TCEP. Activities of recombinant rat cathepsin B (provided by Dr Lukas Mach) and papain (Merck) at 10 nmol/L were assayed using Z‐FR‐AMC (Bachem) as a fluorogenic substrate.
For the detection of cathepsin or legumain activities in the microsomal fraction, 8 µg of microsomal extract was incubated with 50 µM fluorogenic substrate with or without inhibitor in assay buffer (100 mM citrate pH 4.8 and 2 mM DTT). The enzymatic reactions were carried out in a 50 µL reaction volume in a 96-half-well black flat bottom assay plate (Corning Inc., Corning, NY, USA) at 37°C. The fluorescence signal was recorded using a Tecan Infinite-200 plate reader (Tecan, Männedorf, Switzerland) at an excitation wavelength of 380 nm and emission wavelength of 460 nm for 15 min of continuous measurement with a 30-s interval reading. The fluorogenic substrates used for cathepsin S and legumain were Z-VVR-AMC and Z-AAN-AMC (Bachem, Bubendorf, Switzerland), respectively. The inhibitors used for cathepsin S and legumain were Z-FL-COCHO (Sigma-Aldrich, CA, USA) and Ac-YVAD-CMK (Bachem), respectively^11.

The target in test [4] is T4, Bet v 1 / human cathepsin S (Betula pendula, UniProt P15494).
T4 construct: made in house
T4 sequence (P15494 2-160 limits assumed): T2 sequence (P15494 2-160 limits assumed)
As to the kind of experiment: Bet v 1 in vitro proteolytic degradation assay with cathepsin S. The format is biochemical. The settings on record: Bet v 1 20 µM, ligand 100 µM, cathepsin S 1 µM, pH 5.0, 0-24 h, SDS-PAGE. As to the method: as §2, §3

The target in test [5] is T1, Bet_v_1. The settings on record: read-out: K d of ANS, previously published; cited from earlier work.
Where [6] appears, read: Bet v 1 immobilized on chip, ligands in 5 mM sodium phosphate buffer pH 7.4, read-out: Binding affinity K d (SAW).
The mark [7] stands for this setting: Fig. S1 sensorgrams, read-out: Kd (SAW, Fig. S1).

T3 sequence (P25774 115-331): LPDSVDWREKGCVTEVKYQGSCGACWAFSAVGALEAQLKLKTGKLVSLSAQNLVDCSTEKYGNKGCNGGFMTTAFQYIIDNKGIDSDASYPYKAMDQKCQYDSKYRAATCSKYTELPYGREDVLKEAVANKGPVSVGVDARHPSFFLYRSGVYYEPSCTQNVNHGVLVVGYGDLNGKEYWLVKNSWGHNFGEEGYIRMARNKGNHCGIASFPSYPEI

As for lipopolysaccharide [LPS], the “NMR (binding confirmation, K d)” value on Bet_v_1 [1] is listed as “No significant interactions”. Also, the “specific binding to Bet v 1 (1H-15N HSQC spectra)” value (“specific binding” for short) on Bet_v_1 [1] is listed as “No significant interactions”. The Kd at Bet_v_1 [2] (setting [6]) and on Bet_v_1 [2] (setting [7]) was 185 µM in each case. For the same compound, the “binding of Bet v 1 to biotinylated LPS (pull-down)” value at Bet_v_1 [3] is reported as “do not specifically bind”.

On to lipoteichoic acid [LTA], for which, at Bet_v_1 [1], the “NMR (binding confirmation, K d)” value is “No significant interactions” and the “specific binding” value is reported as “No significant interactions”. Further, on Bet_v_1 [2] (setting [6]), the Kd stood at 200 µM. On Bet_v_1 [2] (setting [7]), the Kd was 200 µM.

As for `CCCCCCCCCCCCOS(=O)(=O)[O-].[Na+]` [SDS, sodium dodecyl sulfate], at Bet v 1 / human legumain, the “processing (degradation) of Bet v 1 by legumain” value (shortened to “processing … by legumain”) was “significantly accelerated”. The “cathepsin S fluorogenic activity” value at cathepsin S (10 nmol/L protease, 100 µmol/L ligand, 50 µmol/L substrate, pH 5.0, 2 mmol/L DTT (Figure 3A)) is listed as “reduced the cleavage of fluorogenic substrates”. In addition, the “processing (degradation) of Bet v 1 by cathepsin S” value (“processing … by cathepsin S” below) in test [4] is given as “significantly accelerated”.

Take `O=C1C[C@@H](c2ccc(O)cc2)Oc2cc(O)cc(O)c21` [Naringenin, naringenin]: on Bet v 1 / human legumain, the “processing … by legumain” value is listed as “minor”. Besides, in test [4], the “processing … by cathepsin S” value was “minor”.

On to `CCC(O)/C=C/C1C(O)CC(O)C1CCCCCCCC(=O)O` (stereo not shown) [PPF1, F1‐phytoprostanes], for which the Kd on Bet_v_1 [2] (setting [6]) is 2.4 µM. In addition, the “cathepsin S activity with phytohormones structurally related to PPE1” value on cathepsin S (0.1 mmol/L, 15 min (Figure 4B)) was “did not inhibit”.

As for `CCCCCCCCCCCCCC(=O)O[C@H](CCCCCCCCCCC)CC(=O)O[C@@H]1[C@@H](NC(=O)C[C@@H](CCCCCCCCCCC)OC(=O)CCCCCCCCCCC)[C@H](OC[C@H]2O[C@H](OP(=O)(O)O)[C@H](NC(=O)C[C@H](O)CCCCCCCCCCC)[C@@H](OC(=O)C[C@H](O)CCCCCCCCCCC)[C@@H]2O)O[C@H](CO[C@]2(C(=O)O)C[C@@H](O[C@]3(C(=O)O)C[C@@H](O)[C@@H](O)[C@@H]([C@H](O)CO)O3)[C@@H](O)[C@@H]([C@H](O)CO)O2)[C@H]1OP(=O)(O)O` [Kdo2, Kdo2‐Lipid A], on Bet_v_1 [1], the “NMR (binding confirmation, K d)” value is on record as “No significant interactions” and the “specific binding” value was “No significant interactions”. Also, at Bet_v_1 [2] (setting [6]), the Kd was 380 µM. Moreover, the Kd on Bet_v_1 [2] (setting [7]) turned out to be 380 µM.

Take `O=S(=O)(O)c1cccc2cccc(Nc3ccccc3)c12` [ANS, 8‐anilinonaphthalene‐1‐sulfonic acid]: the “processing … by legumain” value at Bet v 1 / human legumain was “no detectable”. Further, the Kd is 18.5 µM on Bet_v_1 [5]; 32.7 µM at Bet_v_1 [2] (Binding affinity K d (SAW), Bet v 1 immobilized on chip, ligands in 5 mM sodium phosphate buffer pH 7.4); 32.7 µM on Bet_v_1 [2] (Kd (SAW, Fig. S1), Fig. S1 sensorgrams). For the same compound, the “processing … by cathepsin S” value in test [4] is “no detectable”.
